Measured values from patent US10947188B2, “Small molecule ferroptosis inducers” (THE TRUSTEES OF COLUMBIA UNIVERSITY IN THE CITY OF NEW YORK, priority 2016, dated 2021).

How the values were obtained:
[1] = test system: HT-1080; assay: Modulatory profiling: Alamar Blue viability, lethal compound cotreated with death modulator (EC50, AUC); assay type: cell-based; parameters: AUC, modulator HT.3MA / AUC, modulator HT.ALLN / AUC HT.ATA / AUC HT.ActD / AUC HT.BHA / AUC HT.BHT / AUC HT.BocD / AUC HT.CHX / AUC HT.Co2+ / AUC HT.DPQ / AUC HT.EGTA / AUC HT.Lmim / AUC HT.NAD+ / AUC HT.Nec-1 / AUC HT.SP600125 / AUC HT.TLCK / AUC HT.U0126: unit not given beside the values; conditions: for AUC HT.ATA: HT-1080, modulator ATA; for AUC HT.ActD: HT-1080, modulator ActD; for AUC HT.BHA: HT-1080, modulator BHA; for AUC HT.BHT: HT-1080, modulator BHT; for AUC HT.BocD: HT-1080, modulator BocD; for AUC HT.CHX: HT-1080, modulator CHX; for AUC HT.Co2+: HT-1080, modulator Co2+; for AUC HT.CspA: HT-1080, modulator CspA; for AUC HT.DPQ: HT-1080, modulator DPQ; for AUC HT.EGTA: HT-1080, modulator EGTA; for AUC HT.Gd3+: HT-1080, modulator Gd3+; for AUC HT.LNAME: HT-1080, modulator LNAME; for AUC HT.Lmim: HT-1080, modulator Lmim; for AUC HT.NAD+: HT-1080, modulator NAD+; for AUC HT.NMMA: HT-1080, modulator NMMA; for HT.atoc (AUC) / HT.bCarotene (AUC) / HT.deferox (AUC) / HT.digoxin (AUC) / HT.trolox (AUC) / HT.zVAD (AUC): HT-1080; for HT.atoc (AUC): modulator atoc; for HT.bCarotene (AUC): modulator bCarotene; for HT.deferox (AUC): modulator deferox; for HT.digoxin (AUC): modulator digoxin; for HT.trolox (AUC): modulator trolox; for HT.zVAD (AUC): modulator zVAD; for AUC HT.BHA: reference of the scale not given here; for AUC HT.EGTA: reference of the scale not given here
[2] = test system: BJeLR; assay: as above; assay type: cell-based, human; parameters: AUC, modulator BJ.Gd3+ / AUC, modulator BJ.LNAME / AUC, modulator BJ.Lmin / AUC, modulator BJ.3MA / AUC, modulator BJ.ALLN / AUC, modulator BJ.Boc D / AUC, modulator BJ.CHX / AUC, modulator BJ.Co2+ / AUC, modulator BJ.Nec-1 / AUC, modulator BJ.Pepstatin / AUC, modulator BJ.TLCK / AUC, modulator BJ.atoc / AUC, modulator BJ.trolox / AUC, modulator BJ.zVAD: unit not given beside the values; conditions: BJeLR cells, modulatory profile value (AUC); for AUC, modulator BJ.3MA: lethal compound cotreated with modulator 3MA; for AUC, modulator BJ.ALLN: lethal compound cotreated with modulator ALLN; for AUC, modulator BJ.Boc D: lethal compound cotreated with modulator Boc D; for AUC, modulator BJ.CHX: lethal compound cotreated with modulator CHX; for AUC, modulator BJ.Co2+: lethal compound cotreated with modulator Co2+; for AUC, modulator BJ.DPQ: lethal compound cotreated with modulator DPQ; for AUC, modulator BJ.Gd3+: lethal compound cotreated with modulator Gd3+; for AUC, modulator BJ.LNAME: lethal compound cotreated with modulator LNAME; for AUC, modulator BJ.Lmin/NAD+: lethal compound cotreated with modulator Lmin/NAD+; for AUC, modulator BJ.Lmin: lethal compound cotreated with modulator Lmin; for AUC, modulator BJ.NAD+: lethal compound cotreated with modulator NAD+; for AUC, modulator BJ.NMMA: lethal compound cotreated with modulator NMMA; for AUC, modulator BJ.Nec-1: lethal compound cotreated with modulator Nec-1; for AUC, modulator BJ.Pepstatin: lethal compound cotreated with modulator Pepstatin; for AUC, modulator BJ.TLCK: lethal compound cotreated with modulator TLCK; for AUC, modulator BJ.3MA: reference of the scale not given here; for AUC, modulator BJ.ALLN: reference of the scale not given here; for AUC, modulator BJ.Boc D: reference of the scale not given here; for AUC, modulator BJ.CHX: reference of the scale not given here; for AUC, modulator BJ.Co2+: reference of the scale not given here; for AUC, modulator BJ.DPQ: reference of the scale not given here; for AUC, modulator BJ.Gd3+: reference of the scale not given here; for AUC, modulator BJ.LNAME: reference of the scale not given here; for AUC, modulator BJ.NAD+: reference of the scale not given here; for AUC, modulator BJ.NMMA: reference of the scale not given here; for AUC, modulator BJ.Nec-1: reference of the scale not given here; for AUC, modulator BJ.Pepstatin: reference of the scale not given here; for AUC, modulator BJ.TLCK: reference of the scale not given here

SMILES | AUC HT.ATA [1] | AUC HT.ActD [1] | AUC HT.BHA [1] | AUC HT.BHT [1] | AUC HT.BocD [1] | AUC HT.CHX [1] | AUC HT.Co2+ [1] | AUC HT.CspA [1] | AUC HT.DPQ [1] | AUC HT.EGTA [1] | AUC HT.Gd3+ [1] | AUC HT.LNAME [1] | AUC HT.Lmim [1] | AUC HT.NAD+ [1] | AUC HT.NMMA [1] | HT.atoc (AUC) [1] | HT.bCarotene (AUC) [1] | HT.deferox (AUC) [1] | HT.digoxin (AUC) [1] | HT.trolox (AUC) [1] | also measured
CC(C(NNC(=O)c1ccc(C(F)(F)F)cc1)c1ccc(Br)cc1)[N+](=O)[O-] (stereo not drawn) [CIL87] | 0.1137 | −0.007586 | −0.003358 | −0.08317 | −0.007134 | 0.0673 | 0.03163 | −0.05358 | −0.02562 | 0.005305 | −0.02756 | 0.005257 | −0.002116 | −0.001926 | −0.01237 | 0.05929 | 0.01927 | 0.07034 | 0.04582 | −0.03188 | HT.zVAD (AUC) [1]: 0.02258; AUC, modulator BJ.3MA [2]: −0.002764; AUC, modulator BJ.ALLN [2]: −0.08721; AUC, modulator BJ.Boc D [2]: −0.0134; AUC, modulator BJ.CHX [2]: 0.295; AUC, modulator BJ.Co2+ [2]: 0.1416; AUC, modulator BJ.DPQ [2]: −0.03202; AUC, modulator BJ.Gd3+ [2]: 0.0149; AUC, modulator BJ.LNAME [2]: 0.02319; AUC, modulator BJ.Lmin/NAD+ [2]: 0.07639; AUC, modulator BJ.Lmin [2]: 0.0007714; AUC, modulator BJ.NAD+ [2]: −0.03293; AUC, modulator BJ.NMMA [2]: −0.007384; AUC, modulator BJ.Nec-1 [2]: −0.0482; AUC, modulator BJ.Pepstatin [2]: −0.03283; AUC, modulator BJ.TLCK [2]: 0.003206
CCC(C(NNC(=O)c1ccc(C(F)(F)F)cc1)c1ccc(C(F)(F)F)cc1)[N+](=O)O (stereo not drawn) [CIL88] | 0.08122 | −0.03102 | 0.007109 | −0.09988 | 0.02037 | 0.04478 | 0.01652 | −0.05842 | −0.01431 | 0.01878 | −0.03651 | 0.02199 | 0.01907 | 0.007478 | −0.000615 | 0.07162 | 0.02318 | 0.0616 | 0.05526 | −0.01577 | HT.zVAD (AUC) [1]: 0.04371; AUC, modulator BJ.3MA [2]: 0.03093; AUC, modulator BJ.ALLN [2]: −0.1424; AUC, modulator BJ.Boc D [2]: −0.01445; AUC, modulator BJ.CHX [2]: 0.2354; AUC, modulator BJ.Co2+ [2]: 0.05379; AUC, modulator BJ.DPQ [2]: −0.03608; AUC, modulator BJ.Gd3+ [2]: −0.03652; AUC, modulator BJ.LNAME [2]: 0.0201; AUC, modulator BJ.Lmin/NAD+ [2]: 0.03399; AUC, modulator BJ.Lmin [2]: −0.01241; AUC, modulator BJ.NAD+ [2]: −0.03559; AUC, modulator BJ.NMMA [2]: −0.01217; AUC, modulator BJ.Nec-1 [2]: −0.03649; AUC, modulator BJ.Pepstatin [2]: −0.06126; AUC, modulator BJ.TLCK [2]: 0.0209
